Measured values taken from patent US10428070B2, “Hepatitis B antiviral agents” (Enanta Pharmaceuticals, Inc., priority 2017, dated 2019).

Key:
HBV = test: HepAD38 antiviral assay: reduction of viral product accumulation (virion DNA by qPCR, HBsAg or HBeAg by ELISA); type: cell-based, hepatitis B virus; conditions: HepAD38 cells, harvest five days after compound addition, 50% reduction of viral product accumulation relative to no drug controls
Method: Methods: HepAD38 cells are maintained as previously reported (Ladner et al, Antimicrob. Agents Chemother. 1997, […], 1715). Briefly, cells are passaged upon attaining confluency in DMEM/F12 media in the presence of 10% FBS, Penn/Strep, 250 μg/mL G418, and 1 μg/ml tetracycline. Novel compounds are screened by first washing cells three times with PBS to remove tetracycline, and plating in 96 well plates at 35,000 cells/well. Compounds dissolved in DMSO are then diluted 1:200 into wells containing cells. Five days after compound addition, material is harvested for analysis. For an extended 8 day analysis, cells are plated and treated as described above, but media and compound are refreshed on d2 and d5 post initial treatment.
On harvest day, virion DNA is obtained by lysing with Sidestep Lysis and Stabilization Buffer and then quantified via quantitative real time PCR. Commercially available ELISA kits are used to quantitate the viral proteins HBsAg (Alpco) or HbeAg (US Biological) by following the manufacturer's recommended protocol after diluting samples to match the linear range of their respective assays.

[1] = Compound toxicity, total ATP levels (ATPLite); type: cell-based; conditions: human, HepG2 cells, three days after compound addition, 50% reduction of total ATP levels (ATPLite) relative to no drug controls
Method: Compound toxicity is evaluated by seeding cells at 15,000 cells/well and treating with compound as described above.

[2] = Hepatitis B virus, HePAD38, 120 h

With `CCOC(=O)C1=C2C[C@@]3(COC(=O)N3)CN2C(c2nccs2)=N[C@H]1c1ccc(F)cc1Cl` (relative stereo) [Example 11] the EC50 (HBV; [2]) was < 100 nM.
With `CCOC(=O)C1=C2C[C@]3(COC(=O)N3)CN2C(c2nccs2)=N[C@H]1c1ccc(F)cc1Cl` (relative stereo) [Example 12] the EC50 (HBV; [2]) was < 100 nM.
For `CCOC(=O)C1=C2C[C@@]3(CNC(=O)N3)CN2C(c2nccs2)=N[C@H]1c1ccc(F)cc1Cl` (relative stereo) [Example 13], the EC50 (HBV; [2]) was > 400 nM.
With `CCOC(=O)C1=C2C[C@]3(CNC(=O)N3)CN2C(c2nccs2)=N[C@H]1c1ccc(F)cc1Cl` (relative stereo) [Example 14] the EC50 (HBV; [2]) was < 100 nM.
For `CCOC(=O)C1=C2C[C@@]3(CNS(=O)(=O)N3)CN2C(c2nccs2)=N[C@H]1c1ccc(F)cc1Cl` (relative stereo) [Example 15], the CC50 at 3 days [1] was > 25000 nM and the EC50 (HBV; [2]) was < 100 nM.
For `CCOC(=O)C1=C2C[C@]3(CNS(=O)(=O)N3)CN2C(c2nccs2)=N[C@H]1c1ccc(F)cc1Cl` (relative stereo) [Example 16], the EC50 (HBV; [2]) was < 100 nM.
For `O=C1NC[C@@]2(CC3=C(c4cnn(C(F)F)c4)[C@H](c4ccc(F)cc4Cl)N=C(c4nccs4)N3C2)N1` [Example 1], the EC50 (HBV; [2]) was < 100 nM.
In the case of `O=C1NC[C@]2(CC3=C(c4cnn(C(F)F)c4)[C@H](c4ccc(F)cc4Cl)N=C(c4nccs4)N3C2)N1` [Example 2], the CC50 at 3 days [1] is reported as > 25000 nM and the EC50 (HBV; [2]) is reported as < 100 nM.
In the case of `O=C1N[C@@]2(CO1)CC1=C(c3cnn(C(F)F)c3)[C@H](c3ccc(F)cc3Cl)N=C(c3nccs3)N1C2` [Example 3], the CC50 at 3 days [1] is reported as > 25000 nM and the EC50 (HBV; [2]) is reported as < 100 nM.
For `O=C1N[C@]2(CO1)CC1=C(c3cnn(C(F)F)c3)[C@H](c3ccc(F)cc3Cl)N=C(c3nccs3)N1C2` [Example 4], the EC50 (HBV; [2]) was < 100 nM.
With `O=S1(=O)NC[C@]2(CC3=C(c4cnn(C(F)F)c4)[C@H](c4ccc(F)cc4Cl)N=C(c4nccs4)N3C2)N1` [Example 5] the EC50 (HBV; [2]) was < 100 nM.
In the case of `CS(=O)(=O)OC1CCCC12CC1=C(c3cnn(C(F)F)c3)[C@H](c3ccc(F)cc3Cl)N=C(c3nccs3)N1C2` (stereo partly shown) [Example 6], the EC50 (HBV; [2]) is reported as 100 to 400 nM.
In the case of `Fc1ccc([C@@H]2N=C(c3nccs3)N3CC4(CCCCC4)CC3=C2c2cnn(C(F)F)c2)c(Cl)c1` [Example 9], the EC50 (HBV; [2]) is reported as < 100 nM.
For `O=S1(=O)NC[C@@]2(CC3=C(c4cnn(C(F)F)c4)[C@H](c4ccc(F)cc4Cl)N=C(c4nccs4)N3C2)N1` [Example 10], the CC50 at 3 days [1] was > 25000 nM and the EC50 (HBV; [2]) was < 100 nM.
For `O=C1N[C@@]2(CO1)CC1=C(c3ccn(C(F)F)n3)[C@H](c3ccc(F)cc3Cl)N=C(c3nccs3)N1C2` [Example 17], the CC50 at 3 days [1] was > 25000 nM and the EC50 (HBV; [2]) was < 100 nM.
With `O=C1N[C@]2(CO1)CC1=C(c3ccn(C(F)F)n3)[C@H](c3ccc(F)cc3Cl)N=C(c3nccs3)N1C2` [Example 18] the CC50 at 3 days [1] was > 25000 nM and the EC50 (HBV; [2]) was < 100 nM.
With `CN1C(=O)OC[C@@]12CC1=C(c3ccn(C(F)F)n3)[C@H](c3ccc(F)cc3Cl)N=C(c3nccs3)N1C2` [Example 19] the CC50 at 3 days [1] was > 25000 nM and the EC50 (HBV; [2]) was < 100 nM.
With `CCN1C(=O)OC[C@@]12CC1=C(c3ccn(C(F)F)n3)[C@H](c3ccc(F)cc3Cl)N=C(c3nccs3)N1C2` [Example 20] the EC50 (HBV; [2]) was 100 to 400 nM.
With `COC(=O)CCN1C(=O)OC[C@@]12CC1=C(c3ccn(C(F)F)n3)[C@H](c3ccc(F)cc3Cl)N=C(c3nccs3)N1C2` [Example 21] the EC50 (HBV; [2]) was > 400 nM.
For `O=C(O)CCN1C(=O)OC[C@@]12CC1=C(c3ccn(C(F)F)n3)[C@H](c3ccc(F)cc3Cl)N=C(c3nccs3)N1C2` [Example 22], the EC50 (HBV) was > 400 nM.
For `COC(=O)CN1C(=O)OC[C@@]12CC1=C(c3ccn(C(F)F)n3)[C@H](c3ccc(F)cc3Cl)N=C(c3nccs3)N1C2` [Example 23], the EC50 (HBV; [2]) was 100 to 400 nM.
With `O=C(O)CN1C(=O)OC[C@@]12CC1=C(c3ccn(C(F)F)n3)[C@H](c3ccc(F)cc3Cl)N=C(c3nccs3)N1C2` [Example 24] the EC50 (HBV; [2]) was > 400 nM.
With `C=CCN1C(=O)OC[C@@]12CC1=C(c3ccn(C(F)F)n3)[C@H](c3ccc(F)cc3Cl)N=C(c3nccs3)N1C2` [Example 25] the EC50 (HBV; [2]) was 100 to 400 nM.
In the case of `CN1C(=O)OC[C@]12CC1=C(c3ccn(C(F)F)n3)[C@H](c3ccc(F)cc3Cl)N=C(c3nccs3)N1C2` [Example 26], the EC50 (HBV; [2]) is reported as < 100 nM.
With `COC(=O)CN1C(=O)OC[C@]12CC1=C(c3ccn(C(F)F)n3)[C@H](c3ccc(F)cc3Cl)N=C(c3nccs3)N1C2` [Example 27] the EC50 (HBV; [2]) was > 400 nM.
For `O=C(O)CN1C(=O)OC[C@]12CC1=C(c3ccn(C(F)F)n3)[C@H](c3ccc(F)cc3Cl)N=C(c3nccs3)N1C2` [Example 28], the EC50 (HBV; [2]) was > 400 nM.
In the case of `O=C(O)CCN1C(=O)OC[C@@]12CC1=C(c3ccn(C(F)F)n3)[C@H](c3ccc(F)cc3Cl)N=C(c3nccs3)N1C2` [Example 30], the EC50 (HBV) is reported as < 100 nM.
For `C=CCN1C(=O)OC[C@]12CC1=C(c3ccn(C(F)F)n3)[C@H](c3ccc(F)cc3Cl)N=C(c3nccs3)N1C2` [Example 31], the EC50 (HBV; [2]) was > 400 nM.
In the case of `COC(=O)CCCN1C(=O)OC[C@]12CC1=C(c3ccn(C(F)F)n3)[C@H](c3ccc(F)cc3Cl)N=C(c3nccs3)N1C2` [Example 32], the EC50 (HBV; [2]) is reported as < 100 nM.
Molecule `O=C(O)CCCN1C(=O)OC[C@]12CC1=C(c3ccn(C(F)F)n3)[C@H](c3ccc(F)cc3Cl)N=C(c3nccs3)N1C2` [Example 33] has an EC50 (HBV; [2]) of 100 to 400 nM.
In the case of `O=C1OC[C@]2(CC3=C(c4ccn(C(F)F)n4)[C@H](c4ccc(F)cc4Cl)N=C(c4nccs4)N3C2)N1C[C@H](O)CO` [Example 34], the EC50 (HBV; [2]) is reported as > 400 nM.
With `O=C1OC[C@]2(CC3=C(c4ccn(C(F)F)n4)[C@H](c4ccc(F)cc4Cl)N=C(c4nccs4)N3C2)N1C[C@@H](O)CO` [Example 35] the EC50 (HBV; [2]) was 100 to 400 nM.
In the case of `C/C=C/CN1C(=O)OC[C@]12CC1=C(c3ccn(C(F)F)n3)[C@H](c3ccc(F)cc3Cl)N=C(c3nccs3)N1C2` [Example 36], the EC50 (HBV; [2]) is reported as > 400 nM.
With `C=CC1OC(=O)N[C@]12CC1=C(c3ccn(C(F)F)n3)[C@H](c3ccc(F)cc3Cl)N=C(c3nccs3)N1C2` (stereo partly shown) [Example 37] the EC50 (HBV; [2]) was 100 to 400 nM.
In the case of `CC1OC(=O)N[C@]12CC1=C(c3ccn(C(F)F)n3)[C@H](c3ccc(F)cc3Cl)N=C(c3nccs3)N1C2` (stereo partly shown) [Example 38], the EC50 (HBV; [2]) is reported as < 100 nM.
Molecule `COCOCC1OC(=O)N[C@]12CC1=C(c3ccn(C(F)F)n3)[C@H](c3ccc(F)cc3Cl)N=C(c3nccs3)N1C2` (stereo partly shown) [Example 39] has an EC50 (HBV; [2]) of 100 to 400 nM.
With `O=C1N[C@]2(CC3=C(c4ccn(C(F)F)n4)[C@H](c4ccc(F)cc4Cl)N=C(c4nccs4)N3C2)C(CO)O1` (stereo partly shown) [Example 40] the EC50 (HBV; [2]) was < 100 nM.
For `O=C1NC[C@]2(CC3=C(c4ccn(C(F)F)n4)[C@H](c4ccc(F)cc4Cl)N=C(c4nccs4)N3C2)O1` [Example 41], the EC50 (HBV; [2]) was 100 to 400 nM.
For `O=C1NC[C@@]2(CC3=C(c4ccn(C(F)F)n4)[C@H](c4ccc(F)cc4Cl)N=C(c4nccs4)N3C2)O1` [Example 42], the EC50 (HBV; [2]) was 100 to 400 nM.
For `C=CCN1C[C@@]2(CC3=C(c4ccn(C(F)F)n4)[C@H](c4ccc(F)cc4Cl)N=C(c4nccs4)N3C2)OC1=O` [Example 43], the CC50 at 3 days [1] was > 25000 nM and the EC50 (HBV; [2]) was < 100 nM.
In the case of `CC1OC(=O)N[C@@]12CC1=C(c3ccn(C(F)F)n3)[C@H](c3ccc(F)cc3Cl)N=C(c3nccs3)N1C2` (stereo partly shown) [Example 44], the EC50 (HBV; [2]) is reported as < 100 nM.
